Measurements reported in ChEMBL document CHEMBL1201862, “PubChem BioAssay data set” (2004).
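Dose response: 5 concentrations. Exposure: 48 h. Format: 96-well plates. Endpoint: linear interpolation; highest concentration if not reached. GI50 marks 50% less growth.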 Calls of active or inactive are those of the source. Rule as the data show it: active = GI50 up to about 1.1 µM and inactive = higher.

Tests used:
Assay in all cases: growth of human tumour cells (NCI), 48 h
SN12C = system: SN12C
CCRF-CEM = system: CCRF-CEM
UO-31 = system: UO-31
SK-MEL-5 = system: SK-MEL-5
DU-145 = system: DU-145
MDA-MB-435 = system: MDA-MB-435
K562 = system: K562
MCF7 = system: MCF7
NCI-H460 = system: NCI-H460
NCI-H226 = system: NCI-H226
HOP-92 = system: HOP-92
IGROV-1 = system: IGROV-1
SF-295 = system: SF-295
CAKI-1 = system: CAKI-1
NCI/ADR-RES = system: NCI/ADR-RES
Malme-3M = system: Malme-3M
LOX IMVI = system: LOX IMVI
SK-MEL-2 = system: SK-MEL-2
OVCAR-8 = system: OVCAR-8
SW-620 = system: SW-620

Compound | GI50 (SN12C) | GI50 (CCRF-CEM) | GI50 (UO-31) | GI50 (SK-MEL-5) | GI50 (DU-145) | GI50 (MDA-MB-435) | GI50 (K562) | GI50 (MCF7) | GI50 (NCI-H460) | GI50 (NCI-H226) | GI50 (HOP-92) | GI50 (IGROV-1) | GI50 (SF-295) | GI50 (CAKI-1) | GI50 (NCI/ADR-RES) | GI50 (Malme-3M) | GI50 (LOX IMVI) | GI50 (SK-MEL-2) | GI50 (OVCAR-8) | GI50 (SW-620)
CC1=C(C(=O)Nc2ccc(Cl)c(C(=O)OC(C)C)c2)SCCO1 | > 100 µM (inactive) | 48.6 µM (inactive) | 36.9 µM (inactive) | 50.1 µM (inactive) | > 100 µM (inactive) | > 100 µM (inactive) | 45.6 µM (inactive) | 55.3 µM (inactive) | 66.2 µM (inactive) | 75.3 µM (inactive) | 66.2 µM (inactive) | 72.4 µM (inactive) | 54.7 µM (inactive) | > 100 µM (inactive) | 66.2 µM (inactive) | 47.3 µM (inactive) | 51.6 µM (inactive) | 68.4 µM (inactive) | 81.3 µM (inactive) | 74.8 µM (inactive)
CC(=O)Nc1ccc2nc(-c3ccccn3)c(-c3ccccn3)nc2c1 | > 100 µM (inactive) | > 100 µM (inactive) | > 100 µM (inactive) | > 100 µM (inactive) | > 100 µM (inactive) | > 100 µM (inactive) | > 100 µM (inactive) | > 100 µM (inactive) | > 100 µM (inactive) | > 100 µM (inactive) | > 100 µM (inactive) | > 100 µM (inactive) | > 100 µM (inactive) | > 100 µM (inactive) | > 100 µM (inactive) | > 100 µM (inactive) | > 100 µM (inactive) | > 100 µM (inactive) | > 100 µM (inactive) | > 100 µM (inactive)
Cc1ccccc1C(=N)c1ccccc1Cc1cccc2ccccc12 | 19.2 µM (inactive) | 15.4 µM (inactive) | 38.5 µM (inactive) | 17.9 µM (inactive) | 21.8 µM (inactive) | 21.9 µM (inactive) | 18.2 µM (inactive) | 19.1 µM (inactive) | 15.5 µM (inactive) | 17.1 µM (inactive) | 17.1 µM (inactive) | 28.9 µM (inactive) | 19.2 µM (inactive) | 31 µM (inactive) | 25.7 µM (inactive) | 11.5 µM (inactive) | 18.1 µM (inactive) | 16.9 µM (inactive) | 32 µM (inactive) | 21.2 µM (inactive)
CCOC(=O)/C=C(/C)Nc1nc2c(c(C(=O)OC)c1C#N)CCCC2 | > 100 µM (inactive) | > 100 µM (inactive) | > 100 µM (inactive) | > 100 µM (inactive) | > 100 µM (inactive) | > 100 µM (inactive) | > 100 µM (inactive) | > 100 µM (inactive) | > 100 µM (inactive) | > 100 µM (inactive) | > 100 µM (inactive) | > 100 µM (inactive) | > 100 µM (inactive) | > 100 µM (inactive) | > 100 µM (inactive) | > 100 µM (inactive) | > 100 µM (inactive) | > 100 µM (inactive) | > 100 µM (inactive) | > 100 µM (inactive)
CNC1NC(=O)c2ccccc2N1Cc1ccc(F)cc1 (stereo not given) | > 100 µM (inactive) | > 100 µM (inactive) | 11.1 µM (inactive) | > 100 µM (inactive) | > 100 µM (inactive) | > 100 µM (inactive) | > 100 µM (inactive) | > 100 µM (inactive) | > 100 µM (inactive) | > 100 µM (inactive) | > 100 µM (inactive) | > 100 µM (inactive) | > 100 µM (inactive) | > 100 µM (inactive) | > 100 µM (inactive) | > 100 µM (inactive) | > 100 µM (inactive) | > 100 µM (inactive) | > 100 µM (inactive) | > 100 µM (inactive)
CN(C)c1ccc(/C=N/NC(=S)Nc2ccccc2)cc1 | > 100 µM (inactive) | > 100 µM (inactive) | > 100 µM (inactive) | > 100 µM (inactive) | > 100 µM (inactive) | > 100 µM (inactive) | > 100 µM (inactive) | > 100 µM (inactive) | > 100 µM (inactive) | > 100 µM (inactive) | > 100 µM (inactive) | > 100 µM (inactive) | > 100 µM (inactive) | > 100 µM (inactive) | > 100 µM (inactive) | > 100 µM (inactive) | > 100 µM (inactive) | > 100 µM (inactive) | > 100 µM (inactive) | > 100 µM (inactive)
CCOc1cc(NC(C)=O)ccc1C(=O)NN1C(=O)CSC1c1ccccc1 (stereo not given) | > 100 µM (inactive) | 37.8 µM (inactive) | 40.7 µM (inactive) | 34.4 µM (inactive) | > 100 µM (inactive) | > 100 µM (inactive) | 28.8 µM (inactive) | 78.5 µM (inactive) | > 100 µM (inactive) | > 100 µM (inactive) | 42.5 µM (inactive) | > 100 µM (inactive) | 45.2 µM (inactive) | > 100 µM (inactive) | 35.7 µM (inactive) | 86.3 µM (inactive) | > 100 µM (inactive) | > 100 µM (inactive) | 48 µM (inactive) | > 100 µM (inactive)
O=C(NC(CO)CO)c1ccc2cc(C(=O)N3CC(CCl)c4ccc([N+](=O)[O-])cc43)[nH]c2c1 (stereo not given) | > 100 µM (inactive) | > 100 µM (inactive) | > 100 µM (inactive) | > 100 µM (inactive) | > 100 µM (inactive) | > 100 µM (inactive) | > 100 µM (inactive) | > 100 µM (inactive) | > 100 µM (inactive) | > 100 µM (inactive) | > 100 µM (inactive) | > 100 µM (inactive) | > 100 µM (inactive) | > 100 µM (inactive) | > 100 µM (inactive) | > 100 µM (inactive) | > 100 µM (inactive) | > 100 µM (inactive) | > 100 µM (inactive) | > 100 µM (inactive)
O=[N+]([O-])/C(Cl)=C(/C(Cl)=C(Cl)Cl)N1CCOCC1 | 7.43 µM (inactive) | 1.8 µM (inactive) | 6.1 µM (inactive) | 1.65 µM (inactive) | 13.7 µM (inactive) | 2.28 µM (inactive) | 3.18 µM (inactive) | 1.12 µM (active) | 4.33 µM (inactive) | 16.4 µM (inactive) | 2.51 µM (inactive) | 1.92 µM (inactive) | 11.5 µM (inactive) | 4.34 µM (inactive) | 3.29 µM (inactive) | 1.44 µM (inactive) | 3.66 µM (inactive) | 2.12 µM (inactive) | 2.56 µM (inactive) | 2.69 µM (inactive)
COc1ccc(OC)c2c1C1CCC(=O)N1CN2C(C)=O (stereo not given) | > 100 µM (inactive) | > 100 µM (inactive) | > 100 µM (inactive) | > 100 µM (inactive) | > 100 µM (inactive) | > 100 µM (inactive) | > 100 µM (inactive) | > 100 µM (inactive) | > 100 µM (inactive) | > 100 µM (inactive) | > 100 µM (inactive) | > 100 µM (inactive) | > 100 µM (inactive) | > 100 µM (inactive) | > 100 µM (inactive) | > 100 µM (inactive) | > 100 µM (inactive) | > 100 µM (inactive) | > 100 µM (inactive) | > 100 µM (inactive)
CC(C)CCOC(=O)NC(Nc1ccc(F)cc1)(C(F)(F)F)C(F)(F)F | 36.1 µM (inactive) | 19.5 µM (inactive) | 10.7 µM (inactive) | 12.6 µM (inactive) | 7.36 µM (inactive) | 13.7 µM (inactive) | 0.695 µM (active) | 23.2 µM (inactive) | 41.3 µM (inactive) | > 100 µM (inactive) | 44.2 µM (inactive) | 38.2 µM (inactive) | > 100 µM (inactive) | 19.5 µM (inactive) | 52.6 µM (inactive) | > 100 µM (inactive) | 40.9 µM (inactive) | 53.1 µM (inactive) | 51.8 µM (inactive) | 19 µM (inactive)
